Measured values from patent US20130338217A1, “ANTIBIOTIC COMPOSITION INCLUDING PHLOROTANNIN COMPOUND DERIVED FROM EISENIA BICYCLIS AS EFFECTIVE COMPONENT” (PUKYONG NATIONAL UNIVERSITY INDUSTRY-UNIVERSITY C, priority 2012, published 2013).
Converted amounts (≈) assume the structure as drawn.

Columns and labels:
Format in all cases: cell-based, Staphylococcus aureus
MSSA (KCTC 1927) = assay: Minimum inhibitory concentration, two-fold serial dilution, MSSA KCTC 1927
Procedure: (§1) All the bacterial strains used for the Example were obtained from the Korean Collection of Type Cultures (KCTC; Daejeon, Korea) and the Korean Culture Center of Microorganisms (KCCM; Seoul, Korea). The bacterial strains used for the Example were methicillin-susceptible S. aureus (MSSA; KCTC 1927), two MRSA strains (KCCM 40510 and KCCM 40511). All strains were grown in Mueller-Hinton broth (MHB; Difco, Detroit, USA) or Tryptic soy broth (TSB; Difco) for minimum inhibitory concentration (MIC) assay and in Mueller-Hinton agar (MHA; Difco) for disc diffusion.
(§2) MIC means the lowest concentration of antimicrobials that will inhibit the visible growth of microorganisms after overnight incubation. MICS of the extracts and vancomycin were determined by the two-fold serial dilution method in MHB.

MRSA (KCCM 40510) [1] = assay: Minimum inhibitory concentration, two-fold serial dilution, MRSA KCCM 40510
Procedure: as §1, §2

MRSA (KCCM 40511) [2] = assay: Minimum inhibitory concentration, two-fold serial dilution, MRSA KCCM 40511
Procedure: as §1, §2

MSSA (KCCTC 1927) = assay: Checkerboard synergy of phlorofucofuroeckol-A and β-lactams, MSSA KCTC 1927
MRSA (KCCM 40510) [3] = assay: Checkerboard synergy of phlorofucofuroeckol-A and β-lactams, MRSA KCCM 40510
Procedure: (§3) The interaction between phlorofucofuroeckol-A (PFF) and β-lactams including ampicillin, penicillin and oxacillin against MRSA was tested by the checkerboard method. The synergistic effect was evaluated as a fractional inhibitory concentration (FIC) index. The FIC was calculated as the MICS of an antibiotic or phlorofucofuroeckol-A (PFF) in combination divided by the MIC of the antibiotic or PFF alone as follows.
(§4) The FIC was then summed to derive the FIC index, which indicated synergy when index values were as follows:
(§5) synergism ≦≦0.5, indifference >0.5 to ≦≦4, antagonism >4.
(§6) FICA=MICA in combination/MICA, FICB=MICB in combination/MICB

MRSA (KCCM 40511) [4] = assay: Checkerboard synergy of phlorofucofuroeckol-A and β-lactams, MRSA KCCM 40511
Procedure: as §3, §4, §5, §6

[5] = tested on: mec operon (mecA, mecI, mecR1); assay: RT-PCR of drug resistance related genes in MRSA; conditions: MRSA cells treated with various concentrations
Procedure: In order to elucidate the inhibitory effect of phlorofucofuroeckol-A on expression of drug resistance related genes, MRSA cells were treated with various concentrations of phlorofucofuroeckol-A. After cell harvesting, Total RNA was isolated from the strains with zirconia beads and RNAwiz with the manufacturer's specifications. RNA concentrations were estimated via spectrophotometer at 260 nm. The 0.2-1.4 μg of total RNA plus 1.4 μg of random primer was denatured at 65° C. for 5 min, then cooled at 30 sec and preincubated for 2 min at 37° C. after the addition of 10 mM dithioothreitol (DTT), 2.5 mM each of dNTPs, and reaction buffer. Any remaining cRNA was removed via the addition of 2 units RNase H at 37° C. for 20 min. One hundred units of Superscript II reverse transcriptase were added and incubated for 50 min at 37° C. The reaction was then suspended at 70° C. for 15 min. One point five percent of the RT products were added to a PCR reaction which included PCR buffer (pH 8.4, 20 mM Tris, 50 mM KCl), 1.5 mM MgCl2, 0.5 mM dNTPs, 2 pM primers and 0.1 μL Taq DNA polymerase. Twenty-eight PCR cycles were then conducted follows: denaturation at 95° C. annealing at an indicated temperature for each primer and extension at 72° C. […]

PBP2a = assay: Western blot of PBP2a in MRSA; conditions: MRSA cells treated with various concentrations
Procedure: In order to elucidate the inhibitory effect of phlorofucofuroeckol-A on expression of a drug resistance related protein, PBP2a, MRSA cells were treated with various concentrations of phlorofucofuroeckol-A. After cell harvesting, the bacterial lysates were prepared in a lysis buffer containing 20 mM Tris-HCl (pH 7.5), 2 mM ethyleneglycoltetraacetic acid (EGTA), 2 mM ethylenediaminetetraacetic acid (EDTA) and 0.25 M sucrose. The pellets were resuspended by sonication in lysis buffer 2 times for 20 sec. Following 10 min of centrifugation at 13,000×g, the supernatant was obtained as the cell lysate. Protein concentrations were measured with Bradford protein assay. An equal amount of 2×SDS-PAGE sample buffer (pH […], 1 mM EGTA, 1 mM EDTA, 1% SDS, 150 mM NaCl) was added to the tubes containing the cell lysate and the tubes were boiled for 3 min. Aliquots of cellular proteins were then electrophoresed on 10%.

MRSA = assay: Synergy of PFF with β-lactams against MRSA as stated in text; conditions: PFF 25 pg/mL as printed
Procedure: as §3

[6] = Table 6, isolated phlorotannins
[7] = Table 5, PFF and β-lactams, mecA negative strain
[8] = Table 5, PFF and β-lactams, mecA positive strain
[9] = in combination with phlorofucofuroeckol-A at 12.5 μg/ml
[10] = in combination with phlorofucofuroeckol-A at 25 μg/ml
[11] = β-lactam with phlorofucofuroeckol-A at 12.5 μg/ml, synergism ≦0.5, indifference >0.5 to ≦4, antagonism >4
[12] = β-lactam with phlorofucofuroeckol-A at 25 μg/ml, synergism ≦0.5, indifference >0.5 to ≦4, antagonism >4

PBP2a, sequence (P07944 whole entry): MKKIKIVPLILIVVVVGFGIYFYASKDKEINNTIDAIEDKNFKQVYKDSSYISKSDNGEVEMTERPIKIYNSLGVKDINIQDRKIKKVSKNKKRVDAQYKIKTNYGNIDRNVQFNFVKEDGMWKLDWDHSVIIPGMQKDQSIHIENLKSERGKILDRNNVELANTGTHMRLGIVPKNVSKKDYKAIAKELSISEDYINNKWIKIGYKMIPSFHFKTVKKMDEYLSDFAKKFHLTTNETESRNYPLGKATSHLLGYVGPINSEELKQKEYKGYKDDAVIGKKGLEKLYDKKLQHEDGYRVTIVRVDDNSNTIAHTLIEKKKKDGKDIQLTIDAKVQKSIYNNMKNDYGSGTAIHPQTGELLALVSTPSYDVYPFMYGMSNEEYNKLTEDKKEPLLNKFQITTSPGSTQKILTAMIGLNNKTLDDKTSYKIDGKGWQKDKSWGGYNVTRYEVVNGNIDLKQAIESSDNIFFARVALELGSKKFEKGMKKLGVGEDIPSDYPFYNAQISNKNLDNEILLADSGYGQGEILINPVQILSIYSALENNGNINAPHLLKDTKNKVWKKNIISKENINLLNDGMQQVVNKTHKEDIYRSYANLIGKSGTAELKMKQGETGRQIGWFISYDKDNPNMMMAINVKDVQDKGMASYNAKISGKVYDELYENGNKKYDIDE

## Oc1cc(O)c2oc3cc(O)c4oc5cc(O)cc(O)c5oc4c3oc2c1 [DD, dioxinodehydroeckol]
MSSA (KCTC 1927); Staphylococcus aureus
  MIC: 64 µg/mL (≈ 173 µM)
MRSA (KCCM 40510) [1]; Staphylococcus aureus
  MIC: 64 µg/mL (≈ 173 µM)
MRSA (KCCM 40511) [2]; Staphylococcus aureus
  MIC: 64 µg/mL (≈ 173 µM)

## fucofuroeckol-A [FF]
MSSA (KCTC 1927); [6]
  MIC: 32 µg/mL
MRSA (KCCM 40510) [1]; [6]
  MIC: 64 µg/mL
MRSA (KCCM 40511) [2]; [6]
  MIC: 64 µg/mL

## Oc1cc(O)cc(Oc2c(O)cc(O)c3c2Oc2c(O)cc(Oc4c(O)cc(O)cc4O)cc2O3)c1 [PE, 1-(3′,5′-dihydroxyphenoxy)-7-(2″,4″,6-trihydroxyphenoxy)-2,4,9-trihydroxydibenzo-1,4-dioxin]
MSSA (KCTC 1927); [6]
  MIC: 64 µg/mL (≈ 129 µM)
MRSA (KCCM 40510) [1]; [6]
  MIC: 32 µg/mL (≈ 64.5 µM)
MRSA (KCCM 40511) [2]; [6]
  MIC: 64 µg/mL (≈ 129 µM)

## penicillin
MSSA (KCTC 1927); [7]
  MIC: 0.125 µg/mL
MRSA (KCCM 40510) [1]; [8]
  MIC: 512 µg/mL
MRSA (KCCM 40511) [2]; [8]
  MIC: 256 µg/mL
MSSA (KCCTC 1927); [9]
  MIC of β-lactam (B): 0.125 µg/mL
MSSA (KCCTC 1927); [10]
  MIC of β-lactam (C): 0.125 µg/mL
MSSA (KCCTC 1927); without phlorofucofuroeckol-A
  MIC of β-lactam (A): 0.125 µg/mL
MSSA (KCCTC 1927); [11]
  FIC index (b): 1.391
MSSA (KCCTC 1927); [12]
  FIC index (c): 1.781
MRSA (KCCM 40510) [3]; [9]
  MIC of β-lactam (B): 4 µg/mL
MRSA (KCCM 40510) [3]; [10]
  MIC of β-lactam (C): 2 µg/mL
MRSA (KCCM 40510) [3]; without phlorofucofuroeckol-A
  MIC of β-lactam (A): 512 µg/mL
MRSA (KCCM 40510) [3]; [11]
  FIC index (b): 0.399
MRSA (KCCM 40510) [3]; [12]
  FIC index (c): 0.395
MRSA (KCCM 40511) [4]; [9]
  MIC of β-lactam (B): 1 µg/mL
MRSA (KCCM 40511) [4]; [10]
  MIC of β-lactam (C): 0.5 µg/mL
MRSA (KCCM 40511) [4]; without phlorofucofuroeckol-A
  MIC of β-lactam (A): 256 µg/mL
MRSA (KCCM 40511) [4]; [11]
  FIC index (b): 0.395
MRSA (KCCM 40511) [4]; [12]
  FIC index (c): 0.393

## phlorofucofuroeckol A [PFF]
MSSA (KCTC 1927); [7]
  MIC: 32 µg/mL
MSSA (KCTC 1927); [6]
  MIC: 32 µg/mL
MRSA (KCCM 40510) [1]; [8]
  MIC: 32 µg/mL
MRSA (KCCM 40510) [1]; [6]
  MIC: 32 µg/mL
MRSA (KCCM 40511) [2]; [8]
  MIC: 32 µg/mL
MRSA (KCCM 40511) [2]; [6]
  MIC: 32 µg/mL
[5]
  gene transcription of mec operon (mecA, mecI, mecR1): inhibited the gene transcription of mec operon (mecA, mecI, mecR1) involving in synthesizing PBP2a depending on the concentrations
PBP2a
  PBP2a synthesis (protein expression): inhibited a PBP2a synthesis that is a final product of mecA gene depending on the concentrations
MRSA
  effect on the MICs of the β-lactams against MRSA: remarkably reduce the MICS of the β-lactams against MRSA
